# Measured values from US4012576A, “Antibiotic complex Bu 2183” (priority 1975, dated 1977).
# Like-named read-outs stand apart in the source and are kept apart here.
# Tests used:
# E. coli A20107 = experiment: MIC, two-fold agar dilution on Nutrient Agar; format: cell-based; details: Escherichia coli, read-out: MIC
# Experimental: (§1) The minimum inhibitory concentrations (MIC) of Bu-2183 A and B were determined against a wide variety of bacteria by the two-fold agar dilution method on Nutrient Agar plates. The inocula-replicating device of Steers et al. was used. Inoculum size was adjusted to be 10^4 dilution of overnight culture of the test organisms in Heart Infusion Broth (Difco). The results are shown in Table 6 along with those of kanamycin which was comparatively tested as a reference antibiotic.
# E. coli A20732 = experiment: MIC, two-fold agar dilution on Nutrient Agar; format: cell-based
# Experimental: as §1
# E. coli JR 35/C600 = experiment: MIC, two-fold agar dilution on Nutrient Agar; format: cell-based
# Experimental: as §1
# E. coli JR 66/W677 = experiment: MIC, two-fold agar dilution on Nutrient Agar; format: cell-based; details: Escherichia coli
# Experimental: as §1
# E. coli ML 1630 = experiment: MIC, two-fold agar dilution on Nutrient Agar; format: cell-based; details: Escherichia coli, read-out: MIC
# Experimental: as §1
# E. coli NIHJ = experiment: MIC, two-fold agar dilution on Nutrient Agar; format: cell-based; details: Escherichia coli, read-out: MIC
# Experimental: as §1
# E. coli NR 79/W677 = experiment: MIC, two-fold agar dilution on Nutrient Agar; format: cell-based; details: Escherichia coli
# Experimental: as §1
# E. coli PO 1495 = experiment: MIC, two-fold agar dilution on Nutrient Agar; format: cell-based
# Experimental: as §1
# E. coli R 5 = experiment: MIC, two-fold agar dilution on Nutrient Agar; format: cell-based; details: Escherichia coli
# Experimental: as §1
# Ent. cloacae A20364 = experiment: MIC, two-fold agar dilution on Nutrient Agar; format: cell-based
# Experimental: as §1
# Ent. cloacae A21006 = experiment: MIC, two-fold agar dilution on Nutrient Agar; format: cell-based
# Experimental: as §1
# K. pneumoniae D11 = experiment: MIC, two-fold agar dilution on Nutrient Agar; format: cell-based; details: Klebsiella pneumoniae, read-out: MIC
# Experimental: as §1
# [1] = test system: K. pneumoniae Type 22-3038; experiment: MIC, two-fold agar dilution on Nutrient Agar; format: cell-based
# Experimental: as §1
# Pr. mirabilis A9554 = experiment: MIC, two-fold agar dilution on Nutrient Agar; format: cell-based; details: Proteus mirabilis, read-out: MIC
# Experimental: as §1
# Pr. morganii A20031 = experiment: MIC, two-fold agar dilution on Nutrient Agar; format: cell-based
# Experimental: as §1
# Pr. vulgaris A9436 = experiment: MIC, two-fold agar dilution on Nutrient Agar; format: cell-based; details: Proteus vulgaris, read-out: MIC
# Experimental: as §1
# Prov. stuartii A20894 = experiment: MIC, two-fold agar dilution on Nutrient Agar; format: cell-based
# Experimental: as §1
# Ps. aeruginosa A20601 = experiment: MIC, two-fold agar dilution on Nutrient Agar; format: cell-based; details: Pseudomonas aeruginosa, read-out: MIC
# Experimental: as §1
# Ps. aeruginosa A20896 = experiment: MIC, two-fold agar dilution on Nutrient Agar; format: cell-based; details: Pseudomonas aeruginosa, read-out: MIC
# Experimental: as §1
# Ps. aeruginosa No. 130 = experiment: MIC, two-fold agar dilution on Nutrient Agar; format: cell-based
# Experimental: as §1
# Pseudomonas sp. A20621 = experiment: MIC, two-fold agar dilution on Nutrient Agar; format: cell-based
# Experimental: as §1
# S. aureus A20239 = experiment: MIC, two-fold agar dilution on Nutrient Agar; format: cell-based; details: Staphylococcus aureus, read-out: MIC
# Experimental: as §1
# S. aureus D133 = experiment: MIC, two-fold agar dilution on Nutrient Agar; format: cell-based; details: Staphylococcus aureus, read-out: MIC
# Experimental: as §1
# S. aureus D137 = experiment: MIC, two-fold agar dilution on Nutrient Agar; format: cell-based; details: Staphylococcus aureus, read-out: MIC
# Experimental: as §1
# S. aureus D193 = experiment: MIC, two-fold agar dilution on Nutrient Agar; format: cell-based
# Experimental: as §1
# Ser. marcescens A20019 = experiment: MIC, two-fold agar dilution on Nutrient Agar; format: cell-based
# Experimental: as §1
# Ser. marcescens A21247 = experiment: MIC, two-fold agar dilution on Nutrient Agar; format: cell-based; details: Serratia marcescens, read-out: MIC
# Experimental: as §1
# [2] = test system: Gram-positive and Gram-negative bacteria; experiment: In vitro antibacterial activity (general); format: cell-based
# Experimental: as §1
# [3] = test system: S. aureus Smith, E. coli NIHJ and Ps. aeruginosa A9930; experiment: Experimental infections of mice (all three pathogens); format: in vivo; details: subcutaneous
# Experimental: Bu-2183 A and B were evaluated in vivo in experimental infections of mice. The pathogenic bacteria employed were S. aureus Smith, E. coli NIHJ and Ps. aeruginosa A9930. Mice were challenged with a 100 × LD50 dose of the pathogens in a 5% suspension of hog gastric mucin. A single subcutaneous treatment with the antibiotic was made immediately after the bacterial challenge (0 hour), and in a double dose schedule the antibiotic was administered at 0 and 3 hours after the challenge.
compound,measurement,setting,value
CCC(=O)NC1C(CO)OC(OC(C(O)CN)C(N)C(O)CO)C(O)C1O (centres unmarked) [Bu-2183 A],MIC,"E. coli A20107; A20107, Table 6, Ec-49",12.5 µg/mL
same,MIC,"E. coli A20107; A20107, Table 7, Ec-49",25 µg/mL
same,MIC,"E. coli A20732; Escherichia coli, A20732, Table 6, Ec-72, read-out: MIC",12.5 µg/mL
same,MIC,"E. coli A20732; Table 7, Ec-72",12.5 µg/mL
same,MIC,"E. coli JR 35/C600; Escherichia coli, JR35/C600",6.3 µg/mL
same,MIC,"E. coli JR 35/C600; Table 7, Ec-10",6.3 µg/mL
same,MIC,"E. coli JR 66/W677; JR66/W677, Table 6, Ec-53",6.3 µg/mL
same,MIC,"E. coli JR 66/W677; JR66/W677, Table 7, Ec-53",25 µg/mL
same,MIC,"E. coli ML 1630; ML1630, Table 6, Ec-5",12.5 µg/mL
same,MIC,"E. coli ML 1630; ML1630, Table 7, Ec-5",25 µg/mL
same,MIC,"E. coli NIHJ; Table 6, Ec-1",12.5 µg/mL
same,MIC,"E. coli NIHJ; Table 7, Ec-1",25 µg/mL
same,MIC,"E. coli NR 79/W677; NR79/W677, Table 6, Ec-9",25 µg/mL
same,MIC,"E. coli NR 79/W677; NR79/W677, Table 7, Ec-9",12.5 µg/mL
same,MIC,"E. coli PO 1495; Escherichia coli, PO1495, Table 6, Ec-2, read-out: MIC",25 µg/mL
same,MIC,"E. coli PO 1495; Table 7, Ec-2",25 µg/mL
same,MIC,"E. coli R 5; R5, Table 6, Ec-55",25 µg/mL
same,MIC,"E. coli R 5; R5, Table 7, Ec-55",6.3 µg/mL
same,MIC,"Ent. cloacae A20364; Enterobacter cloacae, A20364, Table 6, El-2, read-out: MIC",25 µg/mL
same,MIC,"Ent. cloacae A20364; Table 7, El-2",25 µg/mL
same,MIC,"Ent. cloacae A21006; Enterobacter cloacae, A21006, Table 6, El-12, read-out: MIC",25 µg/mL
same,MIC,"Ent. cloacae A21006; Table 7, El-12",25 µg/mL
same,MIC,"K. pneumoniae D11; D11, Table 6, Kp-1",3.1 µg/mL
same,MIC,"K. pneumoniae D11; D11, Table 7, Kp-1",6.3 µg/mL
same,MIC,"[1]; Klebsiella pneumoniae, TYPE223038, Table 6, Kp-8, read-out: MIC",25 µg/mL
same,MIC,"[1]; Table 7, Kp-8 (printed Type 22-3028)",25 µg/mL
same,MIC,"Pr. mirabilis A9554; A9554, Table 6, Pm-1",12.5 µg/mL
same,MIC,"Pr. mirabilis A9554; A9554, Table 7, Pm-1",25 µg/mL
same,MIC,"Pr. morganii A20031; Morganella morganii, A20031, Table 6, Pg-2, read-out: MIC",25 µg/mL
same,MIC,"Pr. morganii A20031; Table 7, Pg-2",25 µg/mL
same,MIC,"Pr. vulgaris A9436; A9436, Table 6, Pv-1",12.5 µg/mL
same,MIC,"Pr. vulgaris A9436; A9436, Table 7, Pv-1",25 µg/mL
same,MIC,"Prov. stuartii A20894; Providencia stuartii, A20894, Table 6, Ps-2, read-out: MIC",> 100 µg/mL
same,MIC,"Prov. stuartii A20894; Table 7, Ps-2",> 100 µg/mL
same,MIC,"Ps. aeruginosa A20601; A20601, Table 6, Pa-21",25 µg/mL
same,MIC,"Ps. aeruginosa A20601; A20601, Table 7, Pa-21",50 µg/mL
same,MIC,"Ps. aeruginosa A20896; A20896, Table 6, Pa-24",25 µg/mL
same,MIC,"Ps. aeruginosa A20896; A20896, Table 7, Pa-24",50 µg/mL
same,MIC,"Ps. aeruginosa No. 130; Pseudomonas aeruginosa, NO.130, Table 6, Pa-16, read-out: MIC",25 µg/mL
same,MIC,"Ps. aeruginosa No. 130; Table 7, Pa-16",25 µg/mL
same,MIC,"Pseudomonas sp. A20621; Pseudomonas, SP.A20621, Table 6, Px-10, read-out: MIC",> 100 µg/mL
same,MIC,"Pseudomonas sp. A20621; Table 7, Px-10",> 100 µg/mL
same,MIC,"S. aureus A20239; A20239, Table 6, Sa-10",25 µg/mL
same,MIC,"S. aureus A20239; A20239, Table 7, Sa-10",50 µg/mL
same,MIC,"S. aureus D133; D133, Table 6, Sa-4",25 µg/mL
same,MIC,"S. aureus D133; D133, Table 7, Sa-4",50 µg/mL
same,MIC,"S. aureus D137; D137, Table 6, Sa-9",100 µg/mL
same,MIC,"S. aureus D137; D137, Table 7, Sa-9",50 µg/mL
same,MIC,"S. aureus D193; Staphylococcus aureus, D193, Table 6, Sa-3, read-out: MIC",25 µg/mL
same,MIC,"S. aureus D193; Table 7, Sa-3",25 µg/mL
same,MIC,"Ser. marcescens A20019; Serratia marcescens, A20019, Table 6, Sm-1, read-out: MIC",> 100 µg/mL
same,MIC,"Ser. marcescens A20019; Table 7, Sm-1",> 100 µg/mL
same,MIC,"Ser. marcescens A21247; A21247, Table 6, Sm-16",100 µg/mL
same,MIC,"Ser. marcescens A21247; A21247, Table 7, Sm-16",> 100 µg/mL
same,bio-activity,[2],bio-active
same,intrinsic activity in terms of MIC values,[2],moderate or rather weak
same,activity of component A relative to B,"[2]; MIC, Table 6",2-4 fold
same,antibacterial spectrum,[2]; in vitro,broad spectrum of antibacterial activity against Gram-positive and Gram-negative bacteria including many of the aminoglycoside-resistant organisms and Pseudomonas strains
same,in vivo activity,[3],afforded in vivo activity against all three of the infections tested
